Measurements: US12391737B2, “Soluble NPY2 receptor agonists” (Boehringer Ingelheim International GmbH, priority 2020, dated 2025)

Assays:
[1] = biological target: T1, Human Neuropeptide Y2 Receptor (Homo sapiens, UniProt P49146); assay: Radioligand binding competition assay (RLB); conditions: Table 3, 125I-PYY(1-36) competition; read-out: Ki
T1 construct: purchased CHEMICON HTS066M
T1 sequence (P49146 1-381): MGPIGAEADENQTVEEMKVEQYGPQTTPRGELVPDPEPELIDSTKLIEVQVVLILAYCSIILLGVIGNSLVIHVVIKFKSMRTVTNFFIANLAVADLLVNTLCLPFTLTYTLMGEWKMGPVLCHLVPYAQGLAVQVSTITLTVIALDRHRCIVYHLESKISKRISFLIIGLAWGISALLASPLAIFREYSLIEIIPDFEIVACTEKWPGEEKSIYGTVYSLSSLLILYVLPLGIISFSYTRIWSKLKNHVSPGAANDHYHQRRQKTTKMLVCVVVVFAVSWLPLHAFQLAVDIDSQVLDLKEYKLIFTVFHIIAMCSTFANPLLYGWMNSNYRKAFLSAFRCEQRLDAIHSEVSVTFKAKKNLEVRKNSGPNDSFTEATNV
Summary of the method: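 Receptor membranes, 0.5 μg/well; buffer 50 mM HEPES/5 mM MgCl2/1 mM CaCl2/0.2% ovalbumin, pH 7.4; 2 h RT, shaking. GF/C filtration, cold HEPES/500 mM NaCl wash, scintillation count. IC50 by nonlinear regression.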

Solubility determination = conditions: for Sol6: pH 6; for Sol7: pH 7
Summary of the method: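 Solubility is derived from the ratio of reversed-phase peak areas, filtered sample over a control dissolved at 1 mg/ml in 50% acetonitrile. Peptides are agitated for 2 hours at room temperature in 0.1 M sodium diphosphate at pH 6.4 or 7.0, aiming at 10 mg/ml.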

| Compound | Ki [1] [nM] | Sol6 (Solubility determination) [mg/mL] | Sol7 (Solubility determination) [mg/mL] |
| --- | --- | --- | --- |
| CC[C@H](C)[C@H](NC(=O)[C@H](CCC(=O)O)NC(=O)[C@H](CCC(=O)O)NC(=O)[C@@H]1CCCN1C(=O)[C@H](CCC(=O)O)NC(=O)[C@H](C)NC(=O)[C@H](CC(=O)O)NC(=O)[C@H](CCC(=O)O)NC(=O)[C@H](CCC(=O)O)NC(=O)[C@@H]1CCCN1C(=O)[C@H](CCCCNC(=O)CCCCCNC(=O)CC[C@H](NC(=O)CCCCCCCCCCCCCCCCC(=O)O)C(=O)O)NC(=O)[C@H](CCC(=O)O)NC(=O)[C@@H]1CCCN1C(=O)[C@H](C)NC(=O)CC(C)C)C(=O)N[C@@H](CCC(N)=O)C(=O)N[C@@H](CCCNC(=N)N)C(=O)N[C@@H](Cc1ccc(O)cc1)C(=O)N[C@@H](Cc1ccc(O)cc1)C(=O)N[C@H](C(=O)N[C@@H](CO)C(=O)N[C@@H](CC(C)C)C(=O)N[C@@H](CCCNC(=N)N)C(=O)N[C@@H](Cc1c[nH]cn1)C(=O)N[C@@H](Cc1ccc(O)cc1)C(=O)N[C@@H](Cc1ccc(O)cc1)C(=O)N[C@@H](CC(N)=O)C(=O)N[C@@H](Cc1c[nH]c2ccccc12)C(=O)N[C@@H](CC(C)C)C(=O)N[C@H](C(=O)N[C@@H](CCCNC(=N)N)C(=O)N[C@@H](CCC(N)=O)C(=O)N[C@@H](CCCNC(=N)N)C(=O)N[C@@H](Cc1ccc(O)cc1)C(N)=O)[C@@H](C)O)C(C)C [Compound 112, N{alpha-4}-(3-methylbutanoyl)-N{epsilon-7}-(6-[(4S)-4-carboxy-4-(17-carboxyheptadecanamido)butanamido]hexanoyl)-[4A,7K,9E,13E,17I,18Q,22V,28Y,30W,31L]-hPYY(4-36)] | 4.28 | 9.9 | 10.0 |
| CC[C@H](C)[C@H](NC(=O)[C@H](CCC(=O)O)NC(=O)[C@H](CCC(=O)O)NC(=O)[C@@H]1CCCN1C(=O)[C@@H](NC(=O)[C@H](C)NC(=O)[C@H](CC(=O)O)NC(=O)[C@H](CCC(=O)O)NC(=O)[C@H](CCC(=O)O)NC(=O)[C@@H]1CCCN1C(=O)[C@H](CCCCNC(=O)CCCCCNC(=O)CC[C@H](NC(=O)CCCCCCCCCCCCCCCCC(=O)O)C(=O)O)NC(=O)[C@H](CCC(=O)O)NC(=O)[C@@H]1CCCN1C(=O)[C@H](C)NC(=O)CC(C)C)[C@@H](C)O)C(=O)N[C@@H](CCC(N)=O)C(=O)N[C@@H](CCCNC(=N)N)C(=O)N[C@@H](Cc1ccc(O)cc1)C(=O)N[C@@H](Cc1ccc(O)cc1)C(=O)N[C@H](C(=O)N[C@@H](CO)C(=O)N[C@@H](CC(C)C)C(=O)N[C@@H](CCCNC(=N)N)C(=O)N[C@@H](Cc1c[nH]cn1)C(=O)N[C@@H](Cc1ccc(O)cc1)C(=O)N[C@@H](CCC(N)=O)C(=O)N[C@@H](CC(N)=O)C(=O)N[C@@H](Cc1c[nH]c2ccccc12)C(=O)N[C@@H](CC(C)C)C(=O)N[C@H](C(=O)N[C@@H](CCCNC(=N)N)C(=O)N[C@@H](CCC(N)=O)C(=O)N[C@@H](CCCNC(=N)N)C(=O)N[C@@H](Cc1ccc(O)cc1)C(N)=O)[C@@H](C)O)C(C)C [Compound 113, N{alpha-4}-(3-methylbutanoyl)-N{epsilon-7}-(6-[(4S)-4-carboxy-4-(17-carboxyheptadecanamido)butanamido]hexanoyl)-[4A,7K,9E,13T,17I,18Q,22V,28Q,30W,31L]-hPYY(4-36)] | 3.53 | >10.0 | 10.0 |
| CC(C)CC(=O)N[C@@H](C)C(=O)N1CCC[C@H]1C(=O)N[C@@H](CCC(=O)O)C(=O)N[C@@H](CCCCNC(=O)CCCCCNC(=O)CC[C@H](NC(=O)CCCCCCCCCCCCCCCCC(=O)O)C(=O)O)C(=O)N1CCC[C@H]1C(=O)N[C@@H](CCC(=O)O)C(=O)N[C@@H](CCC(=O)O)C(=O)N[C@@H](CC(=O)O)C(=O)N[C@@H](C)C(=O)N[C@H](C(=O)N1CCC[C@H]1C(=O)N[C@@H](CCC(=O)O)C(=O)N[C@@H](CCC(=O)O)C(=O)N[C@@H](CO)C(=O)N[C@@H](CCC(N)=O)C(=O)N[C@@H](CCCNC(=N)N)C(=O)N[C@@H](Cc1ccc(O)cc1)C(=O)N[C@@H](Cc1ccc(O)cc1)C(=O)N[C@H](C(=O)N[C@@H](CO)C(=O)N[C@@H](CC(C)C)C(=O)N[C@@H](CCCNC(=N)N)C(=O)N[C@@H](Cc1c[nH]cn1)C(=O)N[C@@H](Cc1ccc(O)cc1)C(=O)N[C@@H](Cc1ccc(O)cc1)C(=O)N[C@@H](CC(N)=O)C(=O)N[C@@H](Cc1c[nH]c2ccccc12)C(=O)N[C@@H](CC(C)C)C(=O)N[C@H](C(=O)N[C@@H](CCCNC(=N)N)C(=O)N[C@@H](CCC(N)=O)C(=O)N[C@@H](CCCNC(=N)N)C(=O)N[C@@H](Cc1ccc(O)cc1)C(N)=O)[C@@H](C)O)C(C)C)[C@@H](C)O [Compound 119, N{alpha-4}-(3-methylbutanoyl)-N{epsilon-7}-(6-[(4S)-4-carboxy-4-(17-carboxyheptadecanamido)butanamido]hexanoyl)-[4A,7K,9E,13T,17S,18Q,22V,28Y,30W,31L]-hPYY(4-36)] | 5.73 | 9.3 | 9.1 |
| CC[C@H](C)[C@H](NC(=O)[C@H](CCC(=O)O)NC(=O)[C@H](CCC(=O)O)NC(=O)[C@@H]1CCCN1C(=O)[C@@H](NC(=O)[C@H](C)NC(=O)[C@H](C)NC(=O)[C@H](CCC(=O)O)NC(=O)[C@H](CCC(=O)O)NC(=O)[C@@H]1CCCN1C(=O)[C@H](CCCCNC(=O)CCCCCNC(=O)CC[C@H](NC(=O)CCCCCCCCCCCCCCCCC(=O)O)C(=O)O)NC(=O)[C@H](C)NC(=O)[C@@H]1CCCN1C(=O)[C@H](C)NC(=O)CC(C)C)[C@@H](C)O)C(=O)N[C@@H](CCC(N)=O)C(=O)N[C@@H](CCCNC(=N)N)C(=O)N[C@@H](Cc1ccc(O)cc1)C(=O)N[C@@H](Cc1ccc(O)cc1)C(=O)N[C@H](C(=O)N[C@@H](C)C(=O)N[C@@H](CC(C)C)C(=O)N[C@@H](CCCNC(=N)N)C(=O)N[C@@H](Cc1c[nH]cn1)C(=O)N[C@@H](Cc1ccc(O)cc1)C(=O)N[C@@H](Cc1ccc(O)cc1)C(=O)N[C@@H](CC(N)=O)C(=O)N[C@@H](Cc1c[nH]c2ccccc12)C(=O)N[C@@H](CC(C)C)C(=O)N[C@H](C(=O)N[C@@H](CCCNC(=N)N)C(=O)N[C@@H](CCC(N)=O)C(=O)N[C@@H](CCCNC(=N)N)C(=O)N[C@@H](Cc1ccc(O)cc1)C(N)=O)[C@@H](C)O)C(C)C [Compound 120, N{alpha-4}-(3-methylbutanoyl)-N{epsilon-7}-(6-[(4S)-4-carboxy-4-(17-carboxyheptadecanamido)butanamido]hexanoyl)-[4A,6A,7K,9E,11A,13T,17I,18Q,22V,23A,28Y,30W,31L]-hPYY(4-36)] | 1.49 | 0.0 | 0.2 |
| CC(C)CC(=O)N[C@@H](C)C(=O)N1CCC[C@H]1C(=O)N[C@@H](CCC(=O)O)C(=O)N[C@@H](CCCCNC(=O)CCCCCNC(=O)CC[C@H](NC(=O)CCCCCCCCCCCCCCCCC(=O)O)C(=O)O)C(=O)N1CCC[C@H]1C(=O)N[C@@H](CCC(=O)O)C(=O)N[C@@H](C)C(=O)N[C@@H](CC(=O)O)C(=O)N[C@@H](C)C(=O)N[C@@H](CO)C(=O)N1CCC[C@H]1C(=O)N[C@@H](CCC(=O)O)C(=O)N[C@@H](CCC(=O)O)C(=O)N[C@@H](CC(C)C)C(=O)N[C@@H](CCC(N)=O)C(=O)N[C@@H](CCCNC(=N)N)C(=O)N[C@@H](Cc1ccc(O)cc1)C(=O)N[C@@H](Cc1ccc(O)cc1)C(=O)N[C@H](C(=O)N[C@@H](CCC(N)=O)C(=O)N[C@@H](CC(C)C)C(=O)N[C@@H](CCCNC(=N)N)C(=O)N[C@@H](Cc1c[nH]cn1)C(=O)N[C@@H](Cc1ccc(O)cc1)C(=O)N[C@@H](Cc1ccc(O)cc1)C(=O)N[C@@H](CC(N)=O)C(=O)N[C@@H](Cc1c[nH]c2ccccc12)C(=O)N[C@@H](CC(C)C)C(=O)N[C@H](C(=O)N[C@@H](CCCNC(=N)N)C(=O)N[C@@H](CCC(N)=O)C(=O)N[C@@H](CCCNC(=N)N)C(=O)N[C@@H](Cc1ccc(O)cc1)C(N)=O)[C@@H](C)O)C(C)C [Compound 121, N{alpha-4}-(3-methylbutanoyl)-N{epsilon-7}-(6-[(4S)-4-carboxy-4-(17-carboxyheptadecanamido)butanamido]hexanoyl)-[4A,7K,9E,10A,18Q,22V,23Q,28Y,30W,31L]-hPYY(4-36)] | 1.45 | 9.1 | 8.9 |
| CC(C)CC(=O)N[C@@H](C)C(=O)N1CCC[C@H]1C(=O)N[C@@H](CCC(=O)O)C(=O)N[C@@H](CCCCNC(=O)CCCCCNC(=O)CC[C@H](NC(=O)CCCCCCCCCCCCCCCCC(=O)O)C(=O)O)C(=O)N1CCC[C@H]1C(=O)N[C@@H](CCC(=O)O)C(=O)N[C@@H](CCC(=O)O)C(=O)N[C@@H](CC(=O)O)C(=O)N[C@@H](C)C(=O)N[C@@H](C)C(=O)N1CCC[C@H]1C(=O)N[C@@H](CCC(=O)O)C(=O)N[C@@H](CCC(=O)O)C(=O)N[C@@H](CC(C)C)C(=O)N[C@@H](CCC(N)=O)C(=O)N[C@@H](CCCCN)C(=O)N[C@@H](Cc1ccc(O)cc1)C(=O)N[C@@H](Cc1ccc(O)cc1)C(=O)N[C@H](C(=O)N[C@@H](CO)C(=O)N[C@@H](CC(C)C)C(=O)N[C@@H](CCCNC(=N)N)C(=O)N[C@@H](Cc1c[nH]cn1)C(=O)N[C@@H](Cc1ccc(O)cc1)C(=O)N[C@@H](Cc1ccc(O)cc1)C(=O)N[C@@H](CC(N)=O)C(=O)N[C@@H](Cc1c[nH]c2ccccc12)C(=O)N[C@@H](CC(C)C)C(=O)N[C@H](C(=O)N[C@@H](CCCNC(=N)N)C(=O)N[C@@H](CCC(N)=O)C(=O)N[C@@H](CCCNC(=N)N)C(=O)N[C@@H](Cc1ccc(O)cc1)C(N)=O)[C@@H](C)O)C(C)C [Compound 123, N{alpha-4}-(3-methylbutanoyl)-N{epsilon-7}-(6-[(4S)-4-carboxy-4-(17-carboxyheptadecanamido)butanamido]hexanoyl)-[4A,7K,9E,13A,18Q,19K,22V,28Y,30W,31L]-hPYY(4-36)] | 3.65 | 9.1 | 8.7 |
